Bridge positions count the residues as written; N and C are the ends. Square brackets hold non-standard residues; d marks the D form. Peptide text beside a SMILES is read from it. AEEA = NCCOCCOCC(=O)O
system: endogenous cellular enzyme; experiment: Stability test against endogenous cellular enzyme (HUVEC cell lysate); assay type: in vitro ADME, human; conditions: 37° C., after 6 hours of the assay
Procedure: In order to test retention of the effect, and usefulness as a drug, each peptide was subjected to a stability test against endogenous cellular enzyme.
Human vascular endothelial cells (HUVECs (Human Umbilical Vein Endothelial Cells, Promocell GmbH.)) were used. Cryopreserved HUVECs were cultured for 2 days in Endothelial Cell Growth Medium (Promocell GmbH.). The cells were detached and collected by a conventional method using trypsin-EDTA, and washed with H2O, followed by addition of Lysis Buffer for Enzyme extraction (5 mL of TBS pH 7.5, 5 mL of Triton X100 (trade name), 40 mL of H2O with cOmplete mini, manufactured by Roche) thereto. The resulting mixture was left to stand on ice for 30 minutes to lyse the cells. The resulting cell lysate was centrifuged at 13,000 rpm at 4° C. for 3 min, and the supernatant was collected. The protein concentration was measured at A280 (Nano drop, Thermofischer scientific), and then adjusted to 2 mg/mL to prepare a protein solution for an assay.
In each of PCR tubes, 50 μL of each of four kinds of AGP solutions (2 mg/mL)+20 μL of the cell lysate (2 mg/mL)+30 μL of H2O were mixed together, and the resulting mixtures were incubated at 37° C. in an incubator for 0, 1, 3, or 6 hours. Thereafter, each mixture was heated in a hot water bath at 90° C. for 5 minutes to inactivate enzyme, and then subjected to LC-MS analysis. The remaining peptide was quantified based on the area value of the peak detected with UV 210 nm in LC.

Row | remaining peptide / degradation (in words) | SMILES
1 | remained almost without degradation | CC(C)CC1NC(=O)CNC(=O)C(Cc2ccccc2)NC(=O)C(C(C)C)NC(=O)C(C(C)C)NC(=O)C(CO)NC(=O)COCCOCCNC(=O)C(N)CSSCC(C(N)=O)NC(=O)CNC(=O)C(CCCNC(=N)N)NC1=O (stereo not drawn) [cAGP2, Cyclic(DCys-O2Oc-SVVFGLR-G-DCys)-NH2] (H-C[AEEA]SVVFGLRGC-NH2; disulfide 1-11; configuration not given here)
2 | remained almost without degradation | CC(C)CC1NC(=O)CNC(=O)C(Cc2ccccc2)NC(=O)C(C(C)C)NC(=O)C(C(C)C)NC(=O)C(CO)NC(=O)COCCOCCNC(=O)C(N)CSSCC(C(N)=O)NC(=O)CNC(=O)C(CCCNC(=N)N)NC1=O (stereo not drawn) [cAGP3, Cyclic(Cys-O2Oc-SVVFGLR-G-Cys)-NH2] (H-C[AEEA]SVVFGLRGC-NH2; disulfide 1-11; configuration not given here)
3 | same level of stability | CC(C)CC(NC(=O)CNC(=O)C(Cc1ccccc1)NC(=O)C(NC(=O)C(NC(=O)C(CO)NC(=O)COCCOCCN)C(C)C)C(C)C)C(=O)NC(CCCNC(=N)N)C(N)=O (stereo not drawn) [AGP-O2Oc, O2Oc-SVVFGLR-NH2] (H-[AEEA]SVVFGLR-NH2; configuration not given here)

Reference: patent publication US12103983B2, “Compound and angiogenic agent comprising same” (HiPep Laboratories, priority 2018, dated 2024)
